Results published in patent publication US8455534B2, “Estrogen receptor modulators and uses thereof” (Aragon Pharmaceuticals, Inc., priority 2010, dated 2013).

Columns and labels:
MCF-7 cells = test: Breast Cancer Cell Viability Assay (MCF-7, CellTiter-Glo); assay type: cell-based; settings: 5 days' compound exposure; for IC50: Homo sapiens, MCF7, 120 h
Summary of the method: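 MCF-7 cells, 320 per well in RPMI with 10% FBS and 20 mM HEPES, adhered overnight, then exposed 5 days to an eleven-point semilog dilution (final 0.3-0.000003 μM). CellTiter-Glo luminescence read; % viability = (sample − cell-free background)/(untreated − background) × 100.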

ER-α = target: T1, ER-α (Homo sapiens, UniProt P03372); test: Breast Cancer Cell ER-α In Cell Western Assay (SP1); assay type: cell-based; settings: MCF-7 cells, SP1 antibody, 4 or 24 hr post compound addition; for Emax: MCF7, read-out: ER-α In Cell Western Assay (SP1) Max Response; for DC50: read-out: ER-α In Cell Western Assay (SP1) IC50
T1 sequence (P03372 1-595): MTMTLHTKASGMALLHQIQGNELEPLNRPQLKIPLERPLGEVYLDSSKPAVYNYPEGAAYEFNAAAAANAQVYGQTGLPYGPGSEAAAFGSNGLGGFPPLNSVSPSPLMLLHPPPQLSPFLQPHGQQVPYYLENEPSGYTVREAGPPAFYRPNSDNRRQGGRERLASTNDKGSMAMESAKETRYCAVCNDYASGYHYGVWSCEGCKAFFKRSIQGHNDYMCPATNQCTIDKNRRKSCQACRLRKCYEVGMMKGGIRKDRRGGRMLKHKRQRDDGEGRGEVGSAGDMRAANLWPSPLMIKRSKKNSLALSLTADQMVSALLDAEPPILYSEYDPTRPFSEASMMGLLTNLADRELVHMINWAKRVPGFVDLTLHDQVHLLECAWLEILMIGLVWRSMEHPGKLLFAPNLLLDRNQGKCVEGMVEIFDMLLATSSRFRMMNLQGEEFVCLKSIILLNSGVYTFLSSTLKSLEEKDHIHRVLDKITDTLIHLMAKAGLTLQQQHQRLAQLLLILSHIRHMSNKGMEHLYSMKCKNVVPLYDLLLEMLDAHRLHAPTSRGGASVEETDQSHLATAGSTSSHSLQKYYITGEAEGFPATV
Summary of the method: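 ER-α protein levels measured by in-cell western with SP1 antibody, ratioed to DRAQ5 DNA signal and given as percent of untreated controls. Compounds added at 0.3–0.000003 μM final (eleven semilog points) to adherent MCF-7 cells in stripped serum; exposure 4 or 24 h before fixation.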

SMILES | MCF7 Viability Assay Max Response (MCF-7 cells) | IC50 (MCF-7 cells) | Emax (ER-α) | DC50 (ER-α)
CC(C)/C(=C(/c1ccc(/C=C/C(=O)O)cc1)c1ccc2[nH]ncc2c1)c1ccccc1 [Compound 55, (E)-3-(4-((E)-1-(1H-Indazol-5-yl)-3-methyl-2-phenylbut-1-en-1-yl)phenyl)acrylic acid] | ++ (++ = a single % value ≧ 40%) | ≤ 100 nM | ≥ 40% | ≤ 100 nM
O=C(O)/C=C/c1ccc(/C(=C(/CC2CC2)c2ccccc2)c2ccc3[nH]ncc3c2)cc1 [Compound 56, (E)-3-(4-((E)-3-Cyclopropyl-1-(1H-indazol-5-yl)-2-phenylprop-1-en-1-yl)phenyl)acrylic acid] | ++ (++ = a single % value ≧ 40%) | ≤ 100 nM | ≥ 40% | ≤ 100 nM
O=C(O)/C=C/c1ccc(/C(=C(\c2ccccc2Cl)C2CC2)c2ccc3[nH]ncc3c2)cc1 [Compound 57, (E)-3-(4-((E)-2-(2-Chlorophenyl)-2-cyclopropyl-1-(1H-indazol-5-yl)vinyl)phenyl)acrylic acid] | ++ (++ = a single % value ≧ 40%) | ≤ 100 nM | ≥ 40% | ≤ 100 nM
CC/C(=C(/c1ccc(/C=C/C(=O)O)cc1)c1cc2cn[nH]c2cc1F)c1ccccc1 [Compound 58, (E)-3-(4-((E)-1-(6-Fluoro-1H-indazol-5-yl)-2-phenylbut-1-en-1-yl)phenyl)acrylic acid] | ++ (++ = a single % value ≧ 40%) | ≤ 100 nM | ≥ 40% | ≤ 100 nM
CCCC/C(=C(/c1ccc(/C=C/C(=O)O)cc1)c1ccc2[nH]ncc2c1)c1ccccc1 [Compound 59, (E)-3-(4-((E)-1-(1H-Indazol-5-yl)-2-phenylhex-1-en-1-yl)phenyl)acrylic acid] | ++ (++ = a single % value ≧ 40%) | ≤ 100 nM | ≥ 40% | ≤ 100 nM
O=C(O)/C=C/c1ccc(/C(=C(/CC2CCCC2)c2ccccc2)c2ccc3[nH]ncc3c2)cc1 [Compound 60, (E)-3-(4-((E)-3-Cyclopentyl-1-(1H-indazol-5-yl)-2-phenylprop-1-en-1-yl)phenyl)acrylic acid] | ++ (++ = a single % value ≧ 40%) | ≤ 100 nM | ≥ 40% | ≤ 100 nM
CC/C(=C(/c1ccc(/C=C/C(=O)O)cc1)c1ccc2[nH]ncc2c1F)c1ccc(F)cc1Cl [Compound 61, (E)-3-(4-((E)-2-(2-Chloro-4-fluorophenyl)-1-(4-fluoro-1H-indazol-5-yl)but-1-en-1-yl)phenyl)acrylic acid] | ++ (++ = a single % value ≧ 40%) | ≤ 100 nM | ≥ 40% | ≤ 100 nM
CC/C(=C(/c1ccc(/C=C/C(=O)O)cc1)c1cc(F)c2[nH]ncc2c1)c1ccccc1 [Compound 62, (E)-3-(4-((E)-1-(7-Fluoro-1H-indazol-5-yl)-2-phenylbut-1-en-1-yl)phenyl)acrylic acid] | ++ (++ = a single % value ≧ 40%) | ≤ 100 nM | ≥ 40% | ≤ 100 nM
CC(C)C/C(=C(/c1ccc(/C=C/C(=O)O)cc1)c1ccc2[nH]ncc2c1)c1ccc(F)cc1Cl [Compound 63, (E)-3-(4-((E)-2-(2-Chloro-4-fluorophenyl)-1-(1H-indazol-5-yl)-4-methylpent-1-en-1-yl)phenyl)acrylic acid] | ++ (++ = a single % value ≧ 40%) | ≤ 100 nM | ≥ 40% | ≤ 100 nM
O=C(O)/C=C/c1ccc(/C(=C(\c2ccccc2)C(F)F)c2ccc3[nH]ncc3c2)cc1 [Compound 64, (E)-3-(4-((Z)-3,3-Difluoro-1-(1H-indazol-5-yl)-2-phenylprop-1-en-1-yl)phenyl)acrylic acid] | ++ (++ = a single % value ≧ 40%) | ≤ 100 nM | ≥ 40% | ≤ 100 nM
CC/C(=C(/c1ccc(/C=C/C(=O)O)cc1)c1cc(F)c2[nH]ncc2c1)c1ccc(F)cc1Cl [Compound 65, (E)-3-(4-((E)-2-(2-Chloro-4-fluorophenyl)-1-(7-fluoro-1H-indazol-5-yl)but-1-en-1-yl)phenyl)acrylic acid] | ++ (++ = a single % value ≧ 40%) | ≤ 100 nM | ≥ 40% | ≤ 100 nM
O=C(O)/C=C/c1ccc(/C(=C(/CCF)c2ccccc2)c2ccc3[nH]ncc3c2)cc1 [Compound 66, (E)-3-(4-((E)-4-Fluoro-1-(1H-indazol-5-yl)-2-phenylbut-1-en-1-yl)phenyl)acrylic acid] | ++ (++ = a single % value ≧ 40%) | ≤ 100 nM | ≥ 40% | ≤ 100 nM
O=C(O)/C=C/c1ccc(/C(=C(/CCCl)c2ccc(F)cc2Cl)c2ccc3[nH]ncc3c2)cc1 [Compound 67, (E)-3-(4-((E)-4-Chloro-2-(2-chloro-4-fluorophenyl)-1-(1H-indazol-5-yl)but-1-en-1-yl)phenyl)acrylic acid] | ++ (++ = a single % value ≧ 40%) | ≤ 100 nM | ≥ 40% | ≤ 100 nM
O=C(O)/C=C/c1ccc(/C(=C(\c2ccccc2)C(F)(F)F)c2ccc3[nH]ncc3c2)cc1 [Compound 68, (E)-3-(4-((Z)-3,3,3-Trifluoro-1-(1H-indazol-5-yl)-2-phenylprop-1-en-1-yl)phenyl)acrylic acid] | ++ (++ = a single % value ≧ 40%) | ≤ 100 nM | ≥ 40% | ≤ 100 nM
CC/C(=C(/c1ccc(/C=C/C(=O)O)cc1)c1ccc2[nH]ncc2c1F)c1ccc(F)cc1C [Compound 69, (E)-3-(4-((E)-1-(4-Fluoro-1H-indazol-5-yl)-2-(4-fluoro-2-methylphenyl)but-1-en-1-yl)phenyl)acrylic acid] | ++ (++ = a single % value ≧ 40%) | ≤ 100 nM | ≥ 40% | ≤ 100 nM
CC/C(=C(/c1ccc(/C=C/C(=O)O)cc1)c1ccc2[nH]ncc2c1F)c1ccc(Cl)cc1C [Compound 70, (E)-3-(4-((E)-2-(4-Chloro-2-methylphenyl)-1-(4-fluoro-1H-indazol-5-yl)but-1-en-1-yl)phenyl)acrylic acid] | ++ (++ = a single % value ≧ 40%) | ≤ 100 nM | ≥ 40% | ≤ 100 nM
Cc1cc(F)ccc1/C(=C(\c1ccc(/C=C/C(=O)O)cc1)c1ccc2[nH]ncc2c1F)C1CC1 [Compound 71, (E)-3-(4-((E)-2-Cyclopropyl-1-(4-fluoro-1H-indazol-5-yl)-2-(4-fluoro-2-methylphenyl)vinyl)phenyl)acrylic acid] | ++ (++ = a single % value ≧ 40%) | ≤ 100 nM | ≥ 40% | ≤ 100 nM
Cc1cc(Cl)ccc1/C(=C(\c1ccc(/C=C/C(=O)O)cc1)c1ccc2[nH]ncc2c1F)C1CC1 [Compound 72, (E)-3-(4-((E)-2-(4-Chloro-2-methylphenyl)-2-cyclopropyl-1-(4-fluoro-1H-indazol-5-yl)vinyl)phenyl)acrylic acid] | ++ (++ = a single % value ≧ 40%) | ≤ 100 nM | ≥ 40% | ≤ 100 nM
CC/C(=C(/c1ccc(/C=C/C(=O)O)cc1)c1ccc2[nH]ncc2c1Cl)c1ccc(F)cc1Cl [Compound 73, (E)-3-(4-((E)-1-(4-Chloro-1H-indazol-5-yl)-2-(2-chloro-4-fluorophenyl)but-1-en-1-yl)phenyl)acrylic acid] | ++ (++ = a single % value ≧ 40%) | ≤ 100 nM | ≥ 40% | ≤ 100 nM
O=C(O)/C=C/c1ccc(/C(=C(\c2ccc(F)cc2Cl)C(F)F)c2ccc3[nH]ncc3c2)cc1 [Compound 74, (E)-3-(4-((Z)-2-(2-Chloro-4-fluorophenyl)-3,3-difluoro-1-(1H-indazol-5-yl)prop-1-en-1-yl)phenyl)acrylic acid] | ++ (++ = a single % value ≧ 40%) | ≤ 100 nM | ≥ 40% | ≤ 100 nM
O=C(O)/C=C/c1ccc(/C(=C(\c2ccccc2)C2CC2)c2ccc3[nH]ncc3c2F)cc1 [Compound 75, (E)-3-(4-((E)-2-Cyclopropyl-1-(4-fluoro-1H-indazol-5-yl)-2-phenylvinyl)phenyl)acrylic acid] | ++ (++ = a single % value ≧ 40%) | ≤ 100 nM | ≥ 40% | ≤ 100 nM
